{"source": "paper PMC11478212", "about": "“Antitumoral and Antiproliferative Potential of Synthetic Derivatives of Scorpion Peptide IsCT1 in an Oral Cavity Squamous Carcinoma Model” (Molecules, 2024)", "key": {"[1]": {"test": "Resistance to degradation in 25% fetal bovine serum", "type": "in vitro ADME", "settings": "25% fetal bovine serum in water, 37 °C, HPLC peak area vs t = 0 h, triplicate; for remaining at 0.5 h: read-out: peptide remaining intact after 30 min; for remaining at 6 h: read-out: peptide remaining intact after 6 h", "protocol": "Figure 1 (a) Helical wheel projections of the IsCT1, AFPK-IsCT1, KKK-IsCT1, and IsCT-P peptides were generated using the Heliquest server (https://heliquest.ipmc.cnrs.fr/, accessed on 15 July 2024). In these projections, yellow, gray, and green circles represent hydrophobic amino acids, while blue and pink circles denote hydrophilic amino acids. (b) Resistance to degradation assays for all peptides were performed over 6 h in a solution containing 25% fetal bovine serum (FBS). These experiments were conducted in triplicate and aliquots were collected for analysis at 0, 0.5, 1, 2, 4, and 6 h of incubation. The aliquots were subsequently analyzed using high-performance liquid chromatography (HPLC) after each incubation period. The degradation kinetics of the peptides were determined by comparing the integrated peak area associated with the peptide at the start of the experiment (t = 0 h) with the integrated peak area at subsequent time points (t = 0.5, 1, 2, 4, 6 h). (c) The hemolytic activity of synthetic peptides analogous to IsCT1 was assessed on human erythrocytes within a concentration range of 0.13–128 μmol L^−1 in phosphate-buffered saline (PBS) (n = 3). A 1% solution of sodium dodecyl sulfate (SDS) in PBS served as a positive control, while PBS alone was used as a negative control. (d) A table summarizing the sequences, molecular weights, and physicochemical properties of the IsCT1, AFPK-IsCT1, and KKK-IsCT1 peptides. […]\nStability assays were conducted using GIBCO (Waltham, MA, USA) fetal bovine serum diluted to 25% in water, as described by Torres et al.. Briefly, peptide solutions were added to the serum solution and maintained at 37 °C. The experiments were carried out in triplicate and samples were taken at 0, 0.5, 1, 2, 4, and 6 h post incubation. The degradation kinetics were monitored using liquid chromatography and the percentage of remaining peptides was calculated by integrating the peak area of the peptide."}, "FN1 cells": {"system": "FN1 cells", "test": "MTT cell viability", "type": "cell-based", "settings": "FN1 normal human fibroblasts, treatment 24 and 48 h (time of IC50 not given), absorbance 540 nm, N/IC50 = no IC50 for the tested concentrations, no toxicity", "protocol": "(§1) Cell survival was assessed using an MTT assay. Tumor (SSC-9 and SSC-25) and normal cells (FN1 and J-774) were incubated in 96-well plates at a density of 10^5 cells/mL for 24 h. Subsequently, treatments were administered as described in Table 1 for 24 and 48 h. After the treatment period, the supernatant was aspirated and 100 μL of MTT at a concentration of 5 mg/mL (Calbiochem—Darmstadt, Germany) was added to the plate and incubated for 3 h at 37 °C with 5% CO2. Afterward, the content was removed and 200 μL of methanol was added to dissolve the formazan crystals. Absorbance was then measured at a wavelength of 540 nm using a microplate reader. The hemolysis assay was performed as previously reported."}, "J774 cells": {"system": "J774 cells", "test": "MTT cell viability", "type": "cell-based", "settings": "J774 normal macrophages, treatment 24 and 48 h (time of IC50 not given), absorbance 540 nm, N/IC50 = no IC50 for the tested concentrations, no toxicity", "protocol": "as §1"}, "SCC-25 cells": {"system": "SCC-25 cells", "test": "MTT cell viability", "type": "cell-based", "settings": "treatment 24 and 48 h (time of IC50 not given), absorbance 540 nm, N/IC50 = no IC50 for the tested concentrations, no toxicity", "protocol": "as §1"}, "SCC-9 cells": {"system": "SCC-9 cells", "test": "MTT cell viability", "type": "cell-based", "settings": "treatment 24 and 48 h (time of IC50 not given), absorbance 540 nm, N/IC50 = no IC50 for the tested concentrations, no toxicity", "protocol": "as §1"}, "SCC-25 tumor cells [2]": {"system": "SCC-25 tumor cells", "test": "Cell cycle phase and DNA fragmentation analysis (flow cytometry)", "type": "cell-based", "settings": "24 h, IsCT-P and AC-AFPK-IsCT1 at IC50, others 100 µM", "protocol": "(§2) Figure 3 Analysis of cell cycle phases following a 24 h treatment with synthetic analogs of IsCT1 peptides. The indicated cells were treated at the IC50 values obtained for the IsCT-P and AC-AFPK-IsCT1 peptides and at a concentration of 100 µM for the other peptides. (a) Representative histograms of cell distribution across cell cycle phases; (b) bar graph showing the correlation of the effect on cell cycle and fragmented DNA, expressed as the mean ± SD of three independent SCC-9 tumor cell experiments; (c) bar graph showing the correlation of the effect on cell cycle and fragmented DNA, expressed as the mean ± SD of three independent experiments on SCC-25 tumor cells; (d) bar graph showing the correlation of the effect on cell cycle and fragmented DNA, expressed as the mean ± SD of three independent experiments of normal FN1 cells; (e) bar graph showing the correlation of the effect on cell cycle and fragmented DNA, expressed as the mean ± SD of three independent experiments of normal J774 cells. Statistical differences were obtained using ANOVA and Tukey–Kramer multiple comparison tests. * p < 0.05, ** p < 0.01, and *** p < 0.001 denote significance. ns = not significant.\n(§3) Tumor (SSC-9 and SSC-25) and normal cells (FN1 and J-774) were subjected to treatment for 24 h at the peptides’ IC50 concentrations. Treated and control cells were trypsinized and centrifuged at 1200 rpm for 5 min. The resulting pellet was resuspended in 1 mL of cold buffer, followed by the addition of 3 mL of absolute ethanol. Samples were stored at −20 °C for 24 h. The samples were then centrifuged at 1500 rpm for 10 min and resuspended in 200 μL of FACS buffer containing 0.1% Triton X-100 (Sigma-Aldrich, St. Louis, MO, USA), 50 μg/mL propidium iodide (Sigma-Aldrich), and 1 µL of RNAse (200×). This mixture was kept at room temperature and protected from light for 30 min. The samples were then transferred to cytometry tubes and analyzed using a FACScanto flow cytometer (BD) with 10,000 events, and histograms were acquired and analyzed using ModFit LT 5.0 software."}, "SCC-9 tumor cells": {"system": "SCC-9 tumor cells", "test": "Cell cycle phase and DNA fragmentation analysis (flow cytometry)", "type": "cell-based", "settings": "24 h, 100 µM, compared to the control", "protocol": "as §2, §3"}, "SCC-25 tumor cells [3]": {"system": "SCC-25 tumor cells", "test": "Mitochondrial membrane electrical potential (ΔΨm) by flow cytometry", "type": "cell-based", "settings": "24 h, IsCT-P and AC-AFPK-IsCT1 at IC50, others 100 µM, MitoRed, mean ± SD of three independent experiments", "protocol": "Figure 4 Analysis of mitochondrial electrical potential (ΔΨm) using flow cytometry following a 24 h treatment with synthetic analogs of IsCT1 peptides. The indicated cells were treated at the IC50 values obtained for the IsCT-P and AC-AFPK-IsCT1 peptides and at a concentration of 100 µM for the other peptides. (a) Representative histograms of cell distribution according to ΔΨm; (b) bar graph showing ΔΨm expressed as the mean ± SD of three independent experiments of SCC-9 tumor cells; (c) bar graph showing ΔΨm expressed as the mean ± SD of three independent experiments of SCC-25 tumor cells; (d) bar graph showing ΔΨm expressed as the mean ± SD of three independent experiments of normal FN1 cells; (e) bar graph showing ΔΨm expressed as the mean ± SD of three independent experiments of normal J774 cells. Statistical differences were obtained using ANOVA and Tukey–Kramer multiple comparison tests. * p < 0.05, ** p < 0.01, and *** p < 0.001 denote significance. ns = not significant.\nTumor (SSC-9 and SSC-25) and normal cells (FN1 and J-774) were subjected to treatment for a period of 24 h at the peptides’ IC50 concentrations. After treatment, the cells were trypsinized, centrifuged at 1200 rpm for 5 min, the supernatant was discarded, and the cells were resuspended in complete medium containing MitoRed™ (Sigma-Aldrich, USA) (200 nM/L). Subsequently, the samples were incubated in an incubator at 37 °C with 5% CO2 for 30 min. The tubes were then centrifuged, the supernatant was discarded, and the pellet was resuspended in 200 μL of FACS buffer. Readings were performed using a FACScanto flow cytometer (BD) with 10,000 events, and histograms were acquired and analyzed using FCS Express software 2.0."}}, "note": "Like-named read-outs stand apart in the source and are kept apart here. Where no end group is shown, it is not given here."}
{"substance": "H-ILKKIWKGKKSLF-NH2 [KKK-IsCT1]", "values": [{"measurement": "remaining at 0.5 h", "setting": "[1]; 30 min", "value": 50, "unit": "%"}, {"measurement": "remaining at 6 h", "setting": "[1]", "value": 8, "unit": "%"}, {"measurement": "IC50", "setting": "FN1 cells", "value": "N/IC50"}, {"measurement": "IC50", "setting": "J774 cells", "value": "N/IC50"}, {"measurement": "IC50", "setting": "SCC-25 cells", "value": "N/IC50"}, {"measurement": "IC50", "setting": "SCC-9 cells", "value": "N/IC50"}, {"measurement": "fragmented DNA", "setting": "SCC-25 tumor cells [2]", "value": 19, "unit": "%"}]}
{"substance": "ALGKFWPKIKSLF-NH2 [AFPK-IsCT1]", "values": [{"measurement": "remaining at 0.5 h", "setting": "[1]; 30 min", "value": 50, "unit": "%"}, {"measurement": "remaining at 6 h", "setting": "[1]", "value": 8, "unit": "%"}, {"measurement": "IC50", "setting": "FN1 cells", "value": "N/IC50"}, {"measurement": "IC50", "setting": "J774 cells", "value": "N/IC50"}, {"measurement": "IC50", "setting": "SCC-25 cells", "value": "N/IC50"}, {"measurement": "IC50", "setting": "SCC-9 cells", "value": "N/IC50"}, {"measurement": "fragmented DNA", "setting": "SCC-25 tumor cells [2]", "value": "No significant DNA fragmentation"}, {"measurement": "increase in fragmented DNA", "setting": "SCC-9 tumor cells", "value": 13.6, "unit": "%"}, {"measurement": "decrease in ΔΨm", "setting": "SCC-25 tumor cells [3]", "value": "40.5 ± 0.4", "unit": "%"}]}
{"substance": "Ac-ILKKIWKGKKSLF-NH2 [AC-KKK-IsCT1]", "values": [{"measurement": "metabolised at 0.5 h", "setting": "[1]; 30 min", "value": 50, "unit": "%"}, {"measurement": "time to complete degradation", "setting": "[1]", "value": "≤ 4", "unit": "h"}, {"measurement": "IC50", "setting": "FN1 cells; read-out: IC50", "value": 100, "unit": "µM"}, {"measurement": "IC50", "setting": "J774 cells", "value": "N/IC50"}, {"measurement": "IC50", "setting": "SCC-25 cells", "value": "N/IC50"}, {"measurement": "IC50", "setting": "SCC-9 cells", "value": "N/IC50"}, {"measurement": "fragmented DNA", "setting": "SCC-25 tumor cells [2]", "value": 12.4, "unit": "%"}]}
